Reference: paper PMC7747594, “Protease-activated receptor-2 ligands reveal orthosteric and allosteric mechanisms of receptor inhibition” (Communications Biology, 2020)
Where two headings read alike, the source gives them in different places. Values belong to the molecule of their own block, whether it stands above or below them.

Tests used:
[1] = molecular target: T1, hPAR2 (Homo sapiens, UniProt P55085); assay: Radiolabelled competition binding assay against [^3H]-GB110 on HEKexpi293F membranes; parameters: expressed in transfected cells
T1 sequence (P55085 26-397): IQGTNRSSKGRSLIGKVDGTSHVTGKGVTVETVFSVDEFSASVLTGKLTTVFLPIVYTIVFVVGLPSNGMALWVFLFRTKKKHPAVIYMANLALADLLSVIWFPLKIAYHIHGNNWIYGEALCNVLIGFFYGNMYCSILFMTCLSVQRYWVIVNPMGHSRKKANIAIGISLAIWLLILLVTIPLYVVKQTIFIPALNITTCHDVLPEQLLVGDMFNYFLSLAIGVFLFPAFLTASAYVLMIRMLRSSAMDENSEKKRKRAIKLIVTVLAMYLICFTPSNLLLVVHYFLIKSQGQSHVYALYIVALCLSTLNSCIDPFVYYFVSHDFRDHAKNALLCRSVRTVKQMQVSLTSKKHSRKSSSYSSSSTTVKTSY
Method: The reaction was then filtered through 0.5% PEI-coated filter plates using a BiomekFX. The filter plate was then dried for 1 h at 50 °C. Scintillation fluid was added to each well, before reading the plate in a Microbeta reader.
(§1) Binding data were analysed using the One site – Fit Ki model in GraphPad Prism 8 (GraphPad Software) to determine binding affinity. Pharmacology in vitro potency data was analysed with a 4-parameter logistic fit using the equation y = Bottom + (Top − Bottom)/[…] where y is the response, x is the 10-logarithm of the drug concentration, Bottom is no response and Top is full response in GraphPad Prism 8 or Genedata Screener (Genedata). pEC50 and pIC50 data are presented as mean ± standard error of the mean (s.e.m.) derived from the number of independent experiments stated. Schild slope analysis was calculated using Graphpad Prism 8 Gaddum/Schild EC50 global fitting (shared model parameters between all data sets) competitive model. The most rigorous method for quantifying agonist-antagonist interactions is to globally fit the Gaddum/Shild model to all agonist dose–response curves. Schild slope quantifies the shifts in agonist response in the presence of antagonist, a Schild slope of 1 indicates the antagonist is competitive and extra-sum-of-squares F-test (p < 0.05) was used to compare the calculated Schild slope against a hypothetical Schild slope of 1. […] The relative activity was calculated using (EmaxEC50’)/(Emax’EC50) with the Hill slope help constant at 1. EC50’ and Emax’ denote the EC50 and Emax in the absence of allosteric modulator, while EC50 and Emax denote those measured in the presence of allosteric modulator. When the Hill slope = 1, the relative activity plot approaches an asymptote corresponding to the estimate of the γ value.

[2] = molecular target: T1, hPAR2; assay: pERK1/2 HTRF assay, inhibition of SLIGRL-NH2 in U2OS-hPAR2 cells; format: cell-based
Method: Phosphorylation of ERK1/2 was measured in U2OS-hPAR2 cells using Phospho-ERK1/2 (Thr202/Tyr204) assay kit (64ERKPEH Cisbio) and the 2 plate manufacturer’s protocol with the following modifications. Cells were seeded in McCoy’s 5A media containing 10% FBS at 15,000 cells per well in 384-well plates and incubated overnight at 37 °C, 5% CO2. Antagonist compounds (30 µM–1 nM) were incubated with the cells for 30 min prior to the addition of agonist SLIGRL-NH2 (10 µM) at EC80 and further incubation for 5 min at 37 °C. The supernatant was removed from the wells and lysis buffer was added to the cells and incubated with shaking at room temperature for 30 min. The cell lysate was transferred into a small-volume 384-well plate containing detection antibodies and incubated for 4 h at room temperature in the dark. Plates were read for HTRF signal on PHERAstar (BMG LabTech). In addition, phosphorylation of ERK1/2 was measured in CHO-hPAR2 using AlphaLISA SureFire Ultra pERK1/2 (Thr202/Tyr204) (Perkin Elmer). Cells were seeded at a density of 2000 cells per well in a 384-well proxiplate and incubated overnight. […] After incubation, cell lysis buffer was added with shaking for 30 min. Antibodies and beads were added and incubated for 4 h at room temperature. AlphaLISA signal was measured using a PHERAstar (BMG LabTech).
as §1, with “The most rigorous method for quantifying agonist-antagonist interactions is to globally fit the Gaddum/Shild model to all agonist dose–response curves.” left out

[3] = molecular target: T1, hPAR2; assay: IP1 HTRF assay, inhibition of SLIGRL-NH2 in 1321N1-hPAR2 cells; format: cell-based
Method: Inhibition of PAR2-induced inositol-1-phosphate (IP1) production was measured in 1321N1-hPAR2 cells using IP-One Gq HTRF assay kit (Cisbio). […] Next, EC80 of SLIGRL-NH2 (70 µM) supplemented with 50 mM LiCl was added and incubated for 60 min at 37 °C. Detection of IP1 production was performed according to the manufacturer’s protocol and HTRF was measured using PHERAstar (BMG LabTech). Data were normalised to [IP1] using a standard curve.
as §1, with “The most rigorous method for quantifying agonist-antagonist interactions is to globally fit the Gaddum/Shild model to all agonist dose–response curves.” left out

[4] = SLIGRL-NH2, U2OS-hPAR2, mean ± s.e.m., read-out: pERK1/2 (hPAR2) pIC50 (converted)
[5] = SLIGRL-NH2, 1321N1-hPAR2 cells, mean ± s.e.m., read-out: IP1 (hPAR2) pIC50 (converted)

remaining binding at 100 µM ([1]; 2 h, log [compound],M -4, individual data points, read-out: specific binding of [^3H]-GB110, Fig 2b source data): 19.6%
remaining binding at 33.3 µM ([1]; 2 h, log [compound],M -4.47756, individual data points, read-out: specific binding of [^3H]-GB110, Fig 2b source data): 10.5%
remaining binding at 3.7 µM ([1]; 2 h, log [compound],M -5.4318, individual data points, read-out: specific binding of [^3H]-GB110, Fig 2b source data): 11.5%
remaining binding at […] ([1]; 2 h, log [compound],M -5.91009, individual data points, read-out: specific binding of [^3H]-GB110, Fig 2b source data): 15.9%
remaining binding at 0.0152 µM ([1]; 2 h, log [compound],M -7.81816, individual data points, read-out: specific binding of [^3H]-GB110, Fig 2b source data): 88%
remaining binding at 0.00508 µM ([1]; 2 h, log [compound],M -8.29414, individual data points, read-out: specific binding of [^3H]-GB110, Fig 2b source data): 97.4%
remaining binding at 0.00169 µM ([1]; 2 h, log [compound],M -8.77211, individual data points, read-out: specific binding of [^3H]-GB110, Fig 2b source data): 99.3%
remaining binding at 0.000565 µM ([1]; 2 h, log [compound],M -9.24795, individual data points, read-out: specific binding of [^3H]-GB110, Fig 2b source data): 105%
Ki ([1]; [3H]-GB110, earlier manuscript version quoted by reviewer, read-out: Ki): 63 nM
SMILES: CNC(=O)[C@H]1CC[C@@H](NC(=O)[C@H](CC2CCCCC2)NC(=O)c2cn(Cc3ccccc3)nn2)c2ccccc21 [AZ2429]

IC50 [2, 4]: 794 nM
IC50 [3, 5]: 81.3 nM
SMILES: C[C@@H](C1CCCCC1)n1c(-c2cc3c(cc2Br)OCO3)nc2cc(C(=O)Nc3ccncc3)ccc21 [AZ2623]

IC50 [2, 4]: 363 nM
remaining activity at 0.37 µM ([2]; log[compound], M -6.4318, individual data points, read-out: SLIGRL-NH2 phosphorylation of ERK1/2, antagonist response, Fig 1e source data): 45.7%
Ki ([1]; against [^3H]-GB110, HEKexpi293F membranes expressing hPAR2, mean ± s.e.m., read-out: Competition binding pKi (converted)): 12.6 nM
IC50 [3, 5]: 22.4 nM
remaining activity at 0.1001 µM ([3]; log[compound], M -6.99957, individual data points, read-out: SLIGRL-NH2 IP1 formation, antagonist response, Fig 1d source data): 15.9%
remaining activity at 0.03164 µM ([3]; log[compound], M -7.49976, individual data points, read-out: SLIGRL-NH2 IP1 formation, antagonist response, Fig 1d source data): 43.6%
remaining activity at 0.01001 µM ([3]; log[compound], M -7.99957, individual data points, read-out: SLIGRL-NH2 IP1 formation, antagonist response, Fig 1d source data): 71.9%
remaining activity at 0.003165 µM ([3]; log[compound], M -8.49963, individual data points, read-out: SLIGRL-NH2 IP1 formation, antagonist response, Fig 1d source data): 100%
SMILES: C[C@@H](C1CCCCC1)n1c(-c2cc3c(cc2Br)OCO3)nc2cc(C(=O)Nc3ccc(C#N)cc3)ccc21 [AZ3451]

SMILES: CCCc1cc(F)ccc1C(O)c1ncc[nH]1 (stereo not drawn) [AZ8838]
IC50 [2]: 2000 nM
remaining activity at 3.33 µM ([2]; read-out: SLIGRL-NH2 phosphorylation of ERK1/2, antagonist response, Fig 1e source data, log[compound], M -5.47756, individual data points): 40.4%
Ki [1]: 398 nM
IC50 [3]: 1450 nM
remaining activity at 3.163 µM ([3]; read-out: SLIGRL-NH2 IP1 formation, antagonist response, Fig 1d source data, log[compound], M -5.4999, individual data points): 40.7%
remaining activity at 1 µM ([3]; read-out: SLIGRL-NH2 IP1 formation, antagonist response, Fig 1d source data, log[compound], M -6, individual data points): 54.4%
remaining activity at 0.3164 µM ([3]; read-out: SLIGRL-NH2 IP1 formation, antagonist response, Fig 1d source data, log[compound], M -6.49976, individual data points): 79.9%
remaining activity at 0.03164 µM ([3]; read-out: SLIGRL-NH2 IP1 formation, antagonist response, Fig 1d source data, log[compound], M -7.49976, individual data points): 108%
